Results on three compounds are retold here after US20020026069A1 (priority 1998, published 2002).

Series [1] in a line: Stability of the solid on storage or heating. The format is physicochemical.
A further series can be described thus: Hygroscopicity. The format is physicochemical.
The conditions of series [2]: incubation for 6 months at 40° C.; composition produced by the Milman process (U.S. Pat. No. 5,354,885); cited from earlier work.
A short description of series [3]: Stability in aqueous solution. The format is physicochemical. As to conditions: pH 2-3.
The nature of a further series: Solubility. The format is physicochemical.
Another series is described as follows: Particle size. The series is classed as physicochemical. As to conditions: free base obtained by this process.
For series [4] the following is noted: cited from earlier work.
The conditions of series [5]: cited from earlier work. The source holds these as a separate data set.
[6] abbreviates: synthesized by the methods of GB 1,364,505 / U.S. Pat. No. 3,803,120.
Setting [7] is: free base obtained by this process.

As to `CCOC(=O)[C@@H](N)Cc1ccc(O)c(O)c1.Cl` [L-DOPA ethyl ester hydrochloride salt, L-DOPA ethyl ester hydrochloride, reference compound], in series [1] (setting [6]), the stability entry is “not stable”. Further, in “Hygroscopicity” (setting [6]), the hygroscopicity entry is reported as “hygroscopic”.
With `CCOC(=O)[C@@H](N)Cc1ccc(O)c(O)c1` [L-DOPA ethyl ester], the stability result in series [1] (setting [7]) was “stable”; in series [1] (setting [6]) it was “not stable”. For the same compound, the sensitivity to heat result in series [1] (produces cyclic levodopa and levodopa-levodopa ethyl ester) was “very sensitive to heat”. In addition, in series [2], the “L-DOPA ethyl ester remaining after incubation” value is reported as “at least 97 % by weight”. In addition, in series [3], the “stability in the solution” value was “stable”. The hygroscopicity result in the series “Hygroscopicity” (setting [7]) is “non-hygroscopic”. Moreover, the solubility in water entry in the series “Solubility” is recorded as “soluble to a certain extent”. Moreover, the average particle size entry in the series “Particle size” is given as “less than 60 μ”. Also, in the series “Particle size”, the particle size range is reported as 18-180 μ.
Regarding `N[C@@H](Cc1ccc(O)c(O)c1)C(=O)O` [L-DOPA], the half-life in vivo entry in series [4] is given as “short half-life”. The solubility result in series [5] is “very poor solubility”.
